Measurements: ChEMBL document CHEMBL1177708, “Design, synthesis, and biological evaluation of a novel class of gamma-secretase modulators with PPARgamma activity” (J Med Chem, 2010)
Activity calls are given as the source filed them. The rule behind the calls is not given here.

How the values were obtained:
[1] = target: T1, Prostaglandin G/H synthase 2 (Homo sapiens) (UniProt P35354); assay: Inhibition of human recombinant COX2 assessed as residual activity at 10 uM after 5 mins
T1 sequence (whole entry): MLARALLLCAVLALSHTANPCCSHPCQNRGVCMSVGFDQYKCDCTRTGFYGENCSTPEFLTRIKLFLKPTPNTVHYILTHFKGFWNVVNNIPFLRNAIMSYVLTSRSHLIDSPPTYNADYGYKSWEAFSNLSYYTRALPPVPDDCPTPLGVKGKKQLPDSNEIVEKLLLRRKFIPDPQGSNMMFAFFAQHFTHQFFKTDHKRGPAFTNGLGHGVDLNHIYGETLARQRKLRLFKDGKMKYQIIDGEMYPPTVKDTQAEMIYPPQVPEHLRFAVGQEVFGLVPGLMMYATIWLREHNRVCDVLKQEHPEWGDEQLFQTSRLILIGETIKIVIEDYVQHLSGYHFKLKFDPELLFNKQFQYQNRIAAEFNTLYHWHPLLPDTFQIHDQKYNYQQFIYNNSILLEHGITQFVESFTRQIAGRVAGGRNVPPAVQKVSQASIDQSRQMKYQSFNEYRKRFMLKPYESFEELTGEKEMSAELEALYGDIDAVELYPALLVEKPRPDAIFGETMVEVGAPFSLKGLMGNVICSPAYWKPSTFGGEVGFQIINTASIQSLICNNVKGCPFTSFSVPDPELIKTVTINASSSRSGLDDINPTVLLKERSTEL

[2] = target: T2, Peroxisome proliferator-activated receptor alpha (Homo sapiens) (UniProt Q07869); assay: Agonist activity at human PPARalpha-LBD expressed in COS7 cells co-transfected with Gal4 at 10 uM by luciferase based transactivation assay; assay type: functional, cell-based; settings: COS-7
T2 sequence (whole entry): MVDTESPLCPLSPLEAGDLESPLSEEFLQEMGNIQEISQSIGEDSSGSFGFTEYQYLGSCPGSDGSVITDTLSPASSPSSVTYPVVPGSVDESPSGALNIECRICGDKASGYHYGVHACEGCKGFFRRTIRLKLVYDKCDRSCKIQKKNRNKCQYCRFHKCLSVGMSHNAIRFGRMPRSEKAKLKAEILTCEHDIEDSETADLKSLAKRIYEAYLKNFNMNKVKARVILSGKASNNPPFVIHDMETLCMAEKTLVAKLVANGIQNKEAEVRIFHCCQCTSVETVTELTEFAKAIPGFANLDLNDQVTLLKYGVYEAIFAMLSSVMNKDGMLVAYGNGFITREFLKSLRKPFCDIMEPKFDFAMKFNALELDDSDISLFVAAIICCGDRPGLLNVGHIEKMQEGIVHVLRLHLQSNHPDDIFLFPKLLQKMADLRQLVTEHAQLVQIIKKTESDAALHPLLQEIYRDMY

[3] = target: T3, Peroxisome proliferator-activated receptor delta (Homo sapiens) (UniProt Q03181); assay: Agonist activity at human PPARdelta-LBD expressed in COS7 cells co-transfected with Gal4 at 10 uM by luciferase based transactivation assay; assay type: functional, cell-based; settings: COS-7
T3 sequence (whole entry): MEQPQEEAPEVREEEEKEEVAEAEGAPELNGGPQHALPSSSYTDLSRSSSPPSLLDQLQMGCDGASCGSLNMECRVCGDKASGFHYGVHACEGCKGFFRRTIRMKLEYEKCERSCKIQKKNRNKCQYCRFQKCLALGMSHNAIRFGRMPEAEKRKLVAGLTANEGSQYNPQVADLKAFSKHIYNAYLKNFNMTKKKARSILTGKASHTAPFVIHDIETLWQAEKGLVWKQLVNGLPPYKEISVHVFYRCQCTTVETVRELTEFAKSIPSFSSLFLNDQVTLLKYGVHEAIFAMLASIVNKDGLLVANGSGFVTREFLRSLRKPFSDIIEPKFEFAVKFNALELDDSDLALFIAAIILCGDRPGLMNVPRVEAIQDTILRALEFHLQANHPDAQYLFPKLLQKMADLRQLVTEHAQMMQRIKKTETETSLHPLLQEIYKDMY

[4] = target: T4, Peroxisome proliferator-activated receptor gamma (Homo sapiens, UniProt P37231); assay: Agonist activity at human PPARgamma-LBD expressed in COS7 cells co-transfected with Gal4 by luciferase based transactivation assay; assay type: functional, cell-based, COS-7
T4 sequence (P37231 whole entry): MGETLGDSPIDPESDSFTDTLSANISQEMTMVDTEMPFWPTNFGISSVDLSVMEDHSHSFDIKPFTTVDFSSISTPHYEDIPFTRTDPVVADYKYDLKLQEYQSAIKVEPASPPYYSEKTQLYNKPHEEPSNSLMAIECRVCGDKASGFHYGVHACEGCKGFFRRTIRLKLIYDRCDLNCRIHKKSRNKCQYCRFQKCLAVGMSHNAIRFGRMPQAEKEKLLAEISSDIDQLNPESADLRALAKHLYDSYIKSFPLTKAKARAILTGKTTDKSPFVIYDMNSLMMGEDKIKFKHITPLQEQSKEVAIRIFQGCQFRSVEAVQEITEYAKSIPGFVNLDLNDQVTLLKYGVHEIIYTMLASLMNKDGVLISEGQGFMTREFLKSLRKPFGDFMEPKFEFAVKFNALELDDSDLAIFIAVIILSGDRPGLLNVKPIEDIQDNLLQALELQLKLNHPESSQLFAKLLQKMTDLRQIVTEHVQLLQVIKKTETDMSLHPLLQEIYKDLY

[5] = target: T5, Peroxisome proliferator-activated receptor gamma (Homo sapiens) (UniProt P37231); assay: Agonist activity at human PPARgamma-LBD expressed in COS7 cells co-transfected with Gal4 by luciferase based transactivation assay relative to pioglitazone; assay type: functional, cell-based; settings: COS-7
T5 sequence (whole entry): T4 sequence (P37231 whole entry)

[6] = Modulation of gamma-secretase-mediated cleavage of human APP expressed in CHO cells with human presenilin-1 assessed as activation of amyloid beta38 production after 24 hrs by ELISA; assay type: cell-based
[7] = system: CHO; assay: Cytotoxicity against CHO cells at 60 uM after 24 hrs by Alamar blue assay; assay type: cell-based, Cricetulus griseus; settings: chinese hamster
[8] = target: T6, Prostaglandin G/H synthase 1 (Ovis aries) (UniProt P05979); assay: Inhibition of ovine COX1 assessed as residual activity at 10 uM after 5 mins
T6 sequence (whole entry): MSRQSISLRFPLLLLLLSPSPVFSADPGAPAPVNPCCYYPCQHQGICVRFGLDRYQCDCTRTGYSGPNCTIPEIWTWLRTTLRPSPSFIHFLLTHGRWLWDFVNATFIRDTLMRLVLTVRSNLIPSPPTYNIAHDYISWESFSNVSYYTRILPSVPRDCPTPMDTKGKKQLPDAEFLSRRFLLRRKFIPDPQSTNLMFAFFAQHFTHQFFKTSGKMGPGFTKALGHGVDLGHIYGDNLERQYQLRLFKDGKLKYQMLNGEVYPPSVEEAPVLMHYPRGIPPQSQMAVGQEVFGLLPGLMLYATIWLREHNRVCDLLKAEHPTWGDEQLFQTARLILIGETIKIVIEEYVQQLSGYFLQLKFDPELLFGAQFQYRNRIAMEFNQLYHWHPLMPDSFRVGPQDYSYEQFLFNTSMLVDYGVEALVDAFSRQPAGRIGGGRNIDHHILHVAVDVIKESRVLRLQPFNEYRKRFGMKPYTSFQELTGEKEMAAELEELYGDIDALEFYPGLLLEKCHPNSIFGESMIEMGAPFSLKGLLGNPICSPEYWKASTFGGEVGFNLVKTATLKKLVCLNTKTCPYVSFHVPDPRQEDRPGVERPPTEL

[9] = cells; settings: CHO, 24 h
Description: Modulation of gamma-secretase-mediated cleavage of human APP expressed in CHO cells with human presenilin-1 assessed as inhibition of amyloid beta42 production after 24 hrs by ELISA

[10] = target: T7, Prostaglandin G/H synthase 1 (Ovis aries, UniProt P05979)
T7 sequence (P05979 whole entry): T6 sequence (whole entry)
Description: Inhibition of ovine COX1 after 5 mins

[11] = system: CHO; assay: Modulation of gamma-secretase-mediated notch signaling expressed in CHO cells transfected with Gal4-DNA-binding/VP16 transactivation domain assessed as reduction of reporter activity at 5 to 40 uM after 24 hrs; assay type: cell-based

Structure (SMILES) | Activity [1] | Activity [2] | Activity [3] | EC50 [4] | Emax [5] | EC50 [6] | Activity [8] | IC50 [9] | IC50 [10] | Activity [7] | Activity [11]
CCCCC(Sc1nc(OCCC2CCCC2)cc(OCCC2CCCC2)n1)C(=O)O (configuration not stated) | 84.7% | inactive | inactive |  | 127% | 9 µM | 68.2% | 17.2 µM |  | Non-toxic | 
COc1ccc2c(c1)c(CC(=O)O)c(C)n2C(=O)c1ccc(Cl)cc1 [INDOMETHACIN] |  |  |  |  |  |  |  | 25 µM |  |  | 
CCCCC(Sc1nc(OCCC2CCCCC2)cc(OCCC2CCCCC2)n1)C(=O)O (configuration not stated) | 49.5% | inactive | inactive | 6.6 µM | 71% | 4.6 µM | 52.7% | 5.1 µM | 13.4 µM | Non-toxic | inactive
CCCCC(Sc1nc(OCCc2ccc(OC(F)(F)F)cc2)cc(OCCc2ccc(OC(F)(F)F)cc2)n1)C(=O)O (configuration not stated) | 75.8% | inactive | inactive | 10.3 µM | 115% | 5.5 µM | 73% | 8.6 µM |  | Non-toxic | 
CCCCC(Sc1nc(OCCC(C)C)cc(OCCC(C)C)n1)C(=O)O (configuration not stated) | 80.5% | inactive | inactive | 11 µM | 69% | 10.9 µM | 72.4% | 28.2 µM |  | Non-toxic | 
CCCCC(Sc1nc(OCCC2CC2)cc(OCCC2CC2)n1)C(=O)O (configuration not stated) | 87.9% | inactive | inactive | 4.3 µM | 79% | 24 µM | 97.7% | > 40 µM |  | Non-toxic | 
CSc1ccc(/C=C2/C(C)=C(CC(=O)O)c3cc(F)ccc32)cc1 [SULINDAC SULFIDE] |  |  |  |  |  |  |  | 34 µM | 0.05 µM |  | 
CC(C(=O)O)c1ccc2c(c1)[nH]c1ccc(Cl)cc12 (configuration not stated) [CARPROFEN] |  |  |  |  |  |  |  | 305 µM | 13 µM |  | 

More lines, main results first:

Activity [1] | Activity [2] | Activity [3] | EC50 [4] | Emax [5] | EC50 [6] | Activity [8] | IC50 [9] | IC50 [10] | Structure (SMILES) | Activity [7] | Activity [11]
63.8% | inactive | inactive | 8.8 µM | 59% | 24.2 µM | 61.8% | 30.4 µM |  | CCCCCCC(Sc1nc(OCCc2ccccc2)cc(OCCc2ccccc2)n1)C(=O)O (configuration not stated) | Non-toxic | 
92.8% | inactive | inactive | 10.4 µM | 62% | 13.5 µM | 83.5% | 32.6 µM |  | CCCC[C@H](Sc1nc(OCCc2ccccc2)cc(OCCc2ccccc2)n1)C(=O)O | Non-toxic | 
90.9% | inactive | inactive | 8.3 µM | 61% | 11.3 µM | 64.2% | 22.8 µM | 18.7 µM | CCCCC(Sc1nc(OCCc2ccccc2)cc(OCCc2ccccc2)n1)C(=O)O (configuration not stated) | Non-toxic | 
51.9% | inactive | inactive | 8.9 µM | 71% | 16.4 µM | 78.8% | 30.9 µM |  | CCCCC(Sc1nc(OCCCc2ccccc2)cc(OCCCc2ccccc2)n1)C(=O)O (configuration not stated) | Non-toxic | 
93.3% | inactive | inactive | 7.5 µM | 63% | 6.4 µM | 57.2% | 13 µM |  | CCCCC(Sc1nc(OCCc2ccc(C)cc2)cc(OCCc2ccc(C)cc2)n1)C(=O)O (configuration not stated) | Non-toxic | 
56.9% | inactive | inactive | 6.1 µM | 57% | 31.1 µM | 84.6% | 41.6 µM |  | CCC(Sc1nc(OCCc2ccccc2)cc(OCCc2ccccc2)n1)C(=O)O (configuration not stated) | Non-toxic | 
82.6% | inactive | inactive | 7 µM | 65% |  | 88.8% | > 40 µM |  | CCCCC(Sc1nc(OCCc2ccc(C#N)cc2)cc(OCCc2ccc(C#N)cc2)n1)C(=O)O (configuration not stated) | Non-toxic | 
91.7% | inactive | inactive | 3.7 µM | 111% | > 40 µM | 91.8% | > 40 µM |  | O=C(O)CSc1nc(OCCc2ccccc2)cc(OCCc2ccccc2)n1 | Non-toxic | 
53.9% | inactive | inactive | 10 µM | 55% | 16.4 µM | 78.8% | 22.9 µM |  | CCCCC(Sc1nc(OCCCCc2ccccc2)cc(OCCCCc2ccccc2)n1)C(=O)O (configuration not stated) | Non-toxic | 
